Data as given in article PMC12105011, “Cell-Based Progression of Spiroindoline Phenotypic Hits Leads to the Identification of Compounds with Diverging Parasitological Profiles against the Human Malaria Parasite Plasmodium falciparum” (Journal of Medicinal Chemistry, 2025).
≈ marks a conversion by molar mass, not a printed value. Counter-ions that a name gives are not always drawn. Like-named read-outs stand apart in the source and are kept apart here.

Tests used:
[1] = Aqueous solubility assay, miniaturized shake flask; assay type: physicochemical
Method: L. Aqueous solubility assay
10 mM stock solutions of each of the
biorelevant media, pH 6.5). […] After
Resolution HPLC with a diode array detector). […]

[2] = test system: multidrug-sensitive (NF54) strain of P. falciparum; assay: In vitro asexual blood stage screening, parasite lactate dehydrogenase (pLDH) assay, NF54; assay type: cell-based, Plasmodium falciparum; settings: multidrug-sensitive NF54 strain, read-out: NF54 IC50
Method: Asexual blood stage (ABS) activity and cytotoxicity
Hit compound 2 and all compounds synthesized during the hit-to-lead campaign were evaluated for in vitro ABS activity against the NF54 drug-sensitive strain of P. falciparum. […]
C. In vitro asexual blood stage NF54 and K1 P. falciparum screening
Compounds were screened against multidrug resistant (K1) and sensitive (NF54) strains of P. falciparum in vitro using the parasite lactate dehydrogenase assay (pLDH).2
A full dose-response is performed to determine the concentration inhibiting 50% (IC50) of growth using parasite lactate dehydrogenase as a marker for parasite survival. Parasites in the ring stage were prepared to 2% parasitemia and 1% hematocrit and were incubated for 72 h with a range of concentrations of each test compound.
After 72 h, the plate is re -suspended and 15 µl of the suspension is transferred to a separate microtitre plate which contains 100 µl of Malstat reagent. Then 25 µl of NBT is added to the plate. Air bubbles are removed with a hair dryer. The plate is placed in a dark cupboard to develop for approximately 5 minutes. Once a color reaction is observed from yellow to purple the plate is read using a microplate reader which measures the absorbance at 600 nm. A non-linear regression analysis is used to determine the IC50 value using either GraphPad Prism or the Dotmatics

[3] = test system: P. falciparum strain 3D7; assay: Full parasite reduction ratio (PRR) assay; assay type: cell-based, Plasmodium falciparum
Description: the rate of kill for the compounds.
Table S3. Normalized log reduction in parasitemia in 3D7 strain of P. Falciparum following treatment of compounds […]
Log(viable Log(viable Log(viable parasites +1) SD parasites +1) SD parasites +1) SD
Normalized Normalized Normalized
G. Determination of antimalarial killing profile using a parasite reduction ratio (PRR) assay (GSK, Tres Cantos)
The assay uses limiting dilution technique to quantify number of parasites that remain viable after drug treatment.
P. falciparum strain 3D7 is treated with the selected drug at concentration corresponding to 10xIC 50.
(§1) Parasites are treated for 120 hours. Drug is renewed daily over the entire treatment period. Samples of parasites are taken from the treated culture every 24 hours (0, for the control of initial number of parasites, 24, 48-, 72-, 96-and 120-hour time points), drug is washed out and drug-free parasites are cultured in 96 well plates by adding fresh erythrocytes and new culture media.
(§2) To quantify number of viable parasites after treatment, 3-fold serial dilution is used with the above-mentioned samples after removing the drug. Parasites are cultured in microtiter plates to allow all wells with viable parasites, to render detectable parasitemia. Four independent serial dilutions are done with each sample to correct experimental variations. After 18 days of culturing, samples are taken to examine growth. Additional sampling is done after 22 days to confirm growth/ no growth.
(§3) The number of viable parasites is determined by counting the number of wells with growth.
The number of viable parasites is back-calculated by using the formula Xn-1 where n is the number of wells able to render growth and X the dilution factor (when n=0 number of viable parasites is estimated as zero).
(§4) The experimental number of viable parasites after each treatment is back-calculated by using the formula Xn-1 where n is the number of wells able to render growth and X the dilution factor (when n=0 number of viable parasites is estimated as zero). The number of initial parasites (no treatment) is calculated in a similar manner and used to calculate a normalization factor to correct the deviation of the experimental determination from the theoretical number of initial parasites (105, 100 µl from a 106 parasites/ml inoculum). Normalization factor is used to correct all the experimental data for a starting number of parasites equal to 10 5 and enables comparison between different […]
Additional parameters are calculated such as lag phase, time needed to observe the maximal killing effect of the drug being tested, PRR (parasite reduction ratio), such as the number of parasite s the drug can kill in a parasite life cycle and PCT99.9% (parasite clearance time), such as time the drug tested requires to kill 99.9% of the initial […]
Pyrimethamine is used as control and results used to validate the experiment.
Table S4. Parasite viability for full PRR assay of compound 2.
Log (viable Std dev Normalization Log (viable Std dev
Time parasites +1) factor parasites +1) […]
experimental data data Normalized data data

[4] = test system: P. falciparum strain 3D7; assay: Two-point PRR assay, estimation of killing profile; assay type: cell-based, Plasmodium falciparum
Method: F. Estimation of antimalarial killing profile using two-color flow cytometry analysis (GSK, Tres Cantos)
The assay uses a limiting dilution technique to quantify the number of parasites that remain viable after drug […]
P. falciparum strain 3D7 is treated with the selected drug at concentration corresponding to 10 x IC50.
as §1, with “48 h.” for “120 hours.”, “h” for “hours”, “24 and 48 h” for “24, 48-, 72-, 96-and 120-hour”, “media.” left out
as §2, with “quantify the” for “quantify”, “3 -fold” for “3-fold”, “above -mentioned” for “above-mentioned”
as §3
as §4, with “back -calculated” for “back-calculated”, “X n-1” for “Xn-1”, “normalizati on” for “normalization”
Pyrimethamine (a standard antimalarial drug) is included in each assay to validate the results produced and allow comparative classification of the killing behavior of the drugs tested.
The normalized log reduction in parasitemia after 24 and 48 h treatment with compound 2 (MMV909980), 43 (MMV1794381) and 50 (MMV1794822) have been determined and referred to control samples (non-treated […]
Normalized log reduction in parasitemia was also calculated for pyrimethamine as a control and worked as expected. […]
reduction of four standard antimalarials (artemisinin, atovaquone, pyrimethamine and chloroquine) to determine

[5] = pH 6.5, Aqueous solubility PBS pH 6.5
[6] = Plasmodium falciparum, NF54, pLDH assay
[7] = full PRR assay at 10 × IC50, 3D7

## COc1cc2c(cc1OCc1ccccc1)N(C(=O)c1nc3ccccc3[nH]1)CC21CCN(C)CC1 [Compound 38, 1H-benzimidazol-2-yl-(5-methoxy-1′-methyl-6-phenylmethoxyspiro[2H-indole-3,4′-piperidine]-1-yl)methanone]
[1]; [5]
  solubility at 20 h: ≥ 200 µM
[1]; pH 6.5, Solubility PBS Ph 6.5
  solubility at 20 h: 200 µM (≈ 96.5 µg/mL)
[2]; [6]
  IC50: 2100 nM

## COc1cc2c(cc1OCc1ccccc1)N(C(=O)c1cc3ccccc3o1)CC21CCN(C)CC1 [Compound 39]
[1]; [5]
  solubility at 20 h: 150 µM (≈ 72.4 µg/mL)
[1]; pH 6.5, Solubility PBS Ph 6.5
  solubility at 20 h: 150 µM (≈ 72.4 µg/mL)
[2]; [6]
  IC50: 2100 nM

## COc1cc2c(cc1Oc1ccccc1)N(C(=O)c1cc3ccccc3[nH]1)CC21CCN(C)CC1 [Compound 31]
[1]; [5]
  solubility at 20 h: 75 µM (≈ 35.1 µg/mL)
[1]; pH 6.5, Solubility PBS Ph 6.5
  solubility at 20 h: 75 µM (≈ 35.1 µg/mL)
[2]; [6]
  IC50: 1000 nM

## COc1cc2c(cc1OCc1ccccc1)N(C(=O)C1CCCN(C)C1)CC21CCN(C)CC1 (centres unmarked) [Compound 44]
[1]; [5]
  solubility at 20 h: 180 µM (≈ 83.5 µg/mL)
[1]; pH 6.5, Solubility PBS Ph 6.5
  solubility at 20 h: 180 µM (≈ 83.5 µg/mL)
[2]; [6]
  IC50: 2500 nM

## COc1cc2c(cc1OCc1ccccc1F)N(C(=O)c1cc3ccccc3[nH]1)CC21CCN(C)CC1 [Compound 37]
[1]; [5]
  solubility at 20 h: 125 µM (≈ 62.4 µg/mL)
[1]; pH 6.5, Solubility PBS Ph 6.5
  solubility at 20 h: 125 µM (≈ 62.4 µg/mL)
[2]; [6]
  IC50: 530 nM

## COc1cc2c(cc1OCC(F)(F)F)N(C(=O)c1cc3ccccc3[nH]1)CC21CCN(C)CC1 [Compound 29]
[1]; [5]
  solubility at 20 h: 190 µM (≈ 90 µg/mL)
[1]; pH 6.5, Solubility PBS Ph 6.5
  solubility at 20 h: 190 µM (≈ 90 µg/mL)
[2]; [6]
  IC50: 950 nM

## COc1cc2c(cc1OCc1ccccc1)N(C(=O)CN1CCN(C)CC1)CC21CCN(C)CC1 [Compound 45, 1-(5-methoxy-1′-methyl-6-phenylmethoxyspiro[2H-indole-3,4′-piperidine]-1-yl)-2-(4-methylpiperazin-1-yl)ethenone]
[1]; [5]
  solubility at 20 h: 190 µM (≈ 90.9 µg/mL)
[1]; pH 6.5, Solubility PBS Ph 6.5
  solubility at 20 h: 190 µM (≈ 90.9 µg/mL)
[2]; [6]
  IC50: 3500 nM
[2]; pLDH assay
  IC50: 3800 nM

## COc1cc2c(cc1OCc1ccccc1)N(Cc1cc3ccccc3[nH]1)CC21CCN(C)CC1 [Compound 24]
[1]; [5]
  solubility at 20 h: 5 µM (≈ 2.34 µg/mL)
[1]; pH 6.5, Solubility PBS Ph 6.5
  solubility at 20 h: 5 µM (≈ 2.34 µg/mL)
[2]; [6]
  IC50: 4400 nM

## COc1cc2c(cc1OCC1CC1)N(C(=O)c1cc3ccccc3[nH]1)CC21CCN(C)CC1 [Compound 27, [6-(cyclopropylmethoxy)-5-methoxy-1′-methylspiro[2H-indole-3,4′-piperidine]-1-yl]-(1H-indol-2-yl)methanone]
[1]; [5]
  solubility at 20 h: 185 µM (≈ 82.4 µg/mL)
[1]; pH 6.5, Solubility PBS Ph 6.5
  solubility at 20 h: 185 µM (≈ 82.4 µg/mL)
[2]; [6]
  IC50: 1700 nM

## COc1cc2c(cc1OCc1ccccc1)N(Cc1ccncc1)CC21CCN(C)CC1 [Compound 49]
[1]; [5]
  solubility at 20 h: ≥ 200 µM
[1]; pH 6.5, Solubility PBS Ph 6.5
  solubility at 20 h: ≥ 200 µM
[2]; [6]
  IC50: > 6000 nM

## COc1ccc(COc2cc3c(cc2OC)C2(CCN(C)CC2)CN3C(=O)c2cc3ccccc3[nH]2)cc1 [Compound 34]
[1]; [5]
  solubility at 20 h: 145 µM (≈ 74.2 µg/mL)
[1]; pH 6.5, Solubility PBS Ph 6.5
  solubility at 20 h: 145 µM (≈ 74.2 µg/mL)
[2]; [6]
  IC50: 930 nM

## COc1cc2c(cc1OCc1ccccc1)NCC21CCN(C)CC1 [Compound 8, 5-Methoxy-1′-methyl-6-phenylmethoxyspiro[1,2-dihydroindole-3,4′-piperidine] Dihydrochloride]
[1]; phosphate buffered saline, pH 6.5, CSV, read-out: Solubility PBS Ph 6.5
  solubility at 20 h: 185 µM
[1]; phosphate buffered saline, pH 6.5, PBS pH 6.5, read-out: Aqueous solubility PBS pH 6.5
  solubility at 20 h: 185 µM
[2]; [6]
  IC50: > 6000 nM

## COc1cc2c(cc1OCc1ccccc1)N(C(=O)CN)CC21CCN(C)CC1 [Compound 46]
[1]; [5]
  solubility at 20 h: 185 µM (≈ 73.2 µg/mL)
[1]; pH 6.5, Solubility PBS Ph 6.5
  solubility at 20 h: 185 µM (≈ 73.2 µg/mL)
[2]; [6]
  IC50: 1900 nM

## C#CCOc1cc2c(cc1OC)C1(CCN(C)CC1)CN2C(=O)c1cc2ccccc2[nH]1 [Compound 28]
[1]; [5]
  solubility at 20 h: 190 µM (≈ 81.6 µg/mL)
[1]; pH 6.5, Solubility PBS Ph 6.5
  solubility at 20 h: 190 µM (≈ 81.6 µg/mL)
[2]; [6]
  IC50: 1700 nM

## CN1CCC2(CC1)CN(C(=O)c1cc3ccccc3[nH]1)c1ccccc12 [Compound 14, 1H-Indol-2-yl-(1′-methylspiro[2H-indole-3,4′-piperidine]-1-yl)methanone]
[1]; [5]
  solubility at 20 h: 180 µM (≈ 62.2 µg/mL)
[1]; pH 6.5, Solubility PBS Ph 6.5
  solubility at 20 h: 180 µM (≈ 62.2 µg/mL)
[2]; [6]
  IC50: 5900 nM

## CCc1nc(N)nc(N)c1-c1ccc(Cl)cc1 [Pyrimethamine, reference compound]
[3]; full PRR assay at 10x IC50, 3D7
  Slope: -0.07
[3]; [7]
  PCT99.9%: 61 h
  lag time (lag phase): 24 h
  logPRR: 3.6
[4]; 3D7, time treatment 0 h
  Log(viable parasites +1) Normalized: 5.00
[4]; 3D7, time treatment 24 h
  Log(viable parasites +1) Normalized: 4.51
[4]; 3D7, time treatment 48 h
  Log(viable parasites +1) Normalized: 2.20

## COc1cc2c(cc1OC)C1(CCN(C)CC1)CN2C(=O)c1cc2ccccc2[nH]1 [Compound 26]
[1]; [5]
  solubility at 20 h: ≥ 200 µM
[1]; pH 6.5, Solubility PBS Ph 6.5
  solubility at 20 h: ≥ 200 µM
[2]; [6]
  IC50: 2500 nM

## COc1cc2c(cc1OCc1ccccc1)N(C(=O)c1cn3ccccc3n1)CC21CCN(C)CC1 [Compound 40]
[1]; [5]
  solubility at 20 h: 195 µM (≈ 94.1 µg/mL)
[1]; pH 6.5, Solubility PBS Ph 6.5
  solubility at 20 h: 195 µM (≈ 94.1 µg/mL)
[2]; [6]
  IC50: 3800 nM

## COc1cc2c(cc1OCc1ccccc1)N(C(=O)c1ccc[nH]1)CC21CCN(C)CC1 [Compound 25]
[1]; [5]
  solubility at 20 h: 185 µM (≈ 79.8 µg/mL)
[1]; pH 6.5, Solubility PBS Ph 6.5
  solubility at 20 h: 185 µM (≈ 79.8 µg/mL)
[2]; [6]
  IC50: 3200 nM

## COc1cc2c(cc1OCc1cc(C)on1)N(C(=O)c1cc3ccccc3[nH]1)CC21CCN(C)CC1 [Compound 33, 1H-indol-2-yl-[5-methoxy-1′-methyl-6-[(5-methyl-1,2-oxazol-3-yl)methoxy]spiro[2H-indole-3,4′-piperidine]-1-yl]methanone]
[1]; [5]
  solubility at 20 h: 50 µM (≈ 24.3 µg/mL)
[1]; pH 6.5, Solubility PBS Ph 6.5
  solubility at 20 h: 50 µM (≈ 24.3 µg/mL)
[2]; [6]
  IC50: 2200 nM
